Experimental data as given in US7816353B2 (Exelixis, Inc., priority 2003, dated 2010).

Legend:
Format in all cases: biochemical
[1] = biological target: T1, PDK1 (Homo sapiens, UniProt O15530); assay: PDK1 Kinase Assay (Luciferase-Coupled Chemiluminescent Kinase assay, LCCA); conditions: human PDK1 kinase domain residues M51-T359; 0.5 μM ATP; read-out: PDK-1 IC50
T1 construct: human PDK1 kinase domain residues M51-T359; made in house
T1 sequence (O15530 51-359): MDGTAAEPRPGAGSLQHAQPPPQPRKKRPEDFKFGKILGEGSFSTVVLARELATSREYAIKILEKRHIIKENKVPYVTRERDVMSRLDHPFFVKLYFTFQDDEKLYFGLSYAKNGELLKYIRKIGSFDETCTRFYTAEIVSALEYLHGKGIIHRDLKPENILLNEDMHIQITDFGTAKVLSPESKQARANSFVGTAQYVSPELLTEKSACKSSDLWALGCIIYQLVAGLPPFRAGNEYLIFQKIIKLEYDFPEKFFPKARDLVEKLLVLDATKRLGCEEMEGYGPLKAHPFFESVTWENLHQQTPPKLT
Protocol: (§1) Kinase activity and compound inhibition are investigated using one or more of the three assay formats described below. The ATP concentrations for each assay are selected to be close to the Michaelis-Menten constant (KM) for each individual kinase. Dose-response experiments are performed at 10 different inhibitor concentrations in a 384-well plate format. The data are fitted to four-parameter equation (2) below; where Y is the observed signal, X is the inhibitor concentration, Min is the background signal in the absence of enzyme (0% enzyme activity), Max is the signal in the absence of inhibitor (100% enzyme activity), IC50 is the inhibitor concentration at 50% enzyme inhibition and H represents the empirical Hill's slope to measure the cooperativity. Typically H is close to unity. Y=Min+(Max−Min)/(1+(X/IC50)^H) Equation (2) p70S6 Kinase Assay
Biochemical activity of PDK1 kinase was assessed using a Luciferase-Coupled Chemiluminescent Kinase assay (LCCA) format. Kinase activity was measured as the percent ATP remaining following the kinase reaction. Remaining ATP was detected by luciferase-luciferin-coupled chemiluminescence. Specifically, the reaction was initiated by mixing test compounds, 0.5 μM ATP, 0.6 μM PDKtide peptide and 6 nM PDK1 (baculovirus expressed human PDK1 kinase domain residues M51-T359) in a 20 uL assay buffer (20 mM Hepes pH 7.5, 1 mM CaCl2, 0.03% CHAPS, 2 mM DTT). The mixture is incubated at ambient temperature for 3 hours after which 20 μL luciferase-luciferin mix is added and the chemiluminescent signal read using a Wallac Victor2 reader. The luciferase-luciferin mix consists of 50 mM HEPES, pH 7.8, 8.5 μg/mL oxalic acid (pH 7.8), 5 (or 50) mM DTT, 0.4% Triton X-100, 0.25 mg/mL coenzyme A, 63 uM AMP, 28 μg/mL luciferin and 40,000 units/mL luciferase.

[2] = biological target: T2, p70S6K (Homo sapiens, UniProt P23443, T412E); assay: p70S6 Kinase Assay (Luciferase-Coupled Chemiluminescent Kinase assay, LCCA); conditions: human p70S6 kinase domain residues 1-421, T412E; 5 μM ATP; read-out: p70S6K IC50
T2 construct: human p70S6 kinase domain residues 1-421, containing a T412E mutation; made in house
Method in brief: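 Luciferase-coupled chemiluminescence measured percent ATP remaining after the 2 h kinase reaction at ambient temperature, with ATP near the kinase's KM. Ten inhibitor concentrations were tested. IC50 was obtained from a Hill-equation fit.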

[3] = biological target: T3, Akt1 (Homo sapiens, UniProt P31749); assay: Akt1 Kinase Assay (Luciferase-Coupled Chemiluminescent Kinase assay, LCCA); conditions: human Akt1 kinase domain residues R144-A480, activated with PDK1; 1 μM ATP; read-out: Akt-1 IC50
T3 construct: made in house
Protocol: as §1
Biochemical activity of Akt1 kinase was assessed using a Luciferase-Coupled Chemiluminescent Kinase assay (LCCA) format. Kinase activity was measured as the percent ATP remaining following the kinase reaction. Remaining ATP was detected by luciferase-luciferin-coupled chemiluminescence. Specifically, the reaction was initiated by mixing test compounds, 1 μM ATP, 5 μM crosstide peptide and 1.3 nM Akt1 (baculovirus expressed human Akt1 kinase domain residues R144-A480, activated with PDK1) in a 20 uL assay buffer (20 mM Tris-HCL pH 7.5, 10 mM MgCl2, 0.01% Triton X-100, 1 mM DTT, 3 mM MnCl2). The mixture is incubated at ambient temperature for 3 hours after which 20 μL luciferase-luciferin mix is added and the chemiluminescent signal read using a Wallac Victor2 reader. The luciferase-luciferin mix consists of 50 mM HEPES, pH 7.8, 8.5 μg/mL oxalic acid (pH 7.8), 5 (or 50) mM DTT, 0.4% Triton X-100, 0.25 mg/mL coenzyme A, 63 uM AMP, 28 μg/mL luciferin and 40,000 units/mL luciferase.

T3 sequence (P31749 144-480): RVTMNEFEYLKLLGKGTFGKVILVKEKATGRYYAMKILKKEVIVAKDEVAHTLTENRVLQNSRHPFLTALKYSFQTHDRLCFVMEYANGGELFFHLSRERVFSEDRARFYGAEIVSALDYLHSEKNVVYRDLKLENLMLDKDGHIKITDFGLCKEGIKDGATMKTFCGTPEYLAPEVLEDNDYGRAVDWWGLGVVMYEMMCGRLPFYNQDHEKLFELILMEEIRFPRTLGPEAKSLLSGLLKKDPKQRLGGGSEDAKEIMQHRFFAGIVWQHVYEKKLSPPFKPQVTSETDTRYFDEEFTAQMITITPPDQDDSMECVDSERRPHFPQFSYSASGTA
T2 sequence (P23443 1-421 T412E): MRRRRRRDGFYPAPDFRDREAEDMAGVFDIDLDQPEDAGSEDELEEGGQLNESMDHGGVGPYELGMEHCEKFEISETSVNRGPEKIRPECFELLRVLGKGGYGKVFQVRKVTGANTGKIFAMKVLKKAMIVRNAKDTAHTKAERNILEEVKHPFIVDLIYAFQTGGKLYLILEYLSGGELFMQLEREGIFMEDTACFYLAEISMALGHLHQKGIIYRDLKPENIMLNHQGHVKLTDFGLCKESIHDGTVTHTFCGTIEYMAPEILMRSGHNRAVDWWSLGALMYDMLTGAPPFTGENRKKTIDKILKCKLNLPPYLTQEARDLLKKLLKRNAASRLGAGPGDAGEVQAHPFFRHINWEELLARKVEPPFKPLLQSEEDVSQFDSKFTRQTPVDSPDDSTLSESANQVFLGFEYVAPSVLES

IC50 [1] [nM] | IC50 [2] [nM] | IC50 [3] [nM] | Structure (SMILES)
> 2000 | 50 to 500 | > 2000 | CSc1nc(N)nc(N[C@@H](CN(C)C)C(=O)Nc2cccc(C(F)(F)F)c2)c1C#N [Example 142, N~2~-[2-amino-5-cyano-6-(methylthio)pyrimidin-4-yl]-3-(dimethylamino)-N-[3-(trifluoromethyl)phenyl]-L-alaninamide]
> 2000 | < 50 | > 2000 | CSc1nc(N)nc(N(C)[C@@H](C)C(=O)Nc2cccc(Br)c2)c1C#N [Example 133, N~2~-[2-amino-5cyano-6-(methylthio)pyrimidin-4-yl]-N-(3-bromophenyl)-N~2~-methyl-L-alaninamide]
> 2000 | < 50 | > 2000 | CSc1nc(N)nc(SCC(=O)Nc2cc(C(F)(F)F)ccn2)c1C#N [Example 37, 2-{[2-amino-5-cyano-6-(methylthio)pyrimidin-4-yl]thio}-N-[4-(trifluoromethyl)pyridin-2-yl]acetamide]
> 2000 | < 50 | > 2000 | Nc1cc(SCC(=O)Nc2ccc(F)c(C(F)(F)F)c2)nc(N)n1 [Example 32, 2-[(2,6-diaminopyrimidin-4-yl)thio]-N-[4-fluoro-3-(trifluoromethyl)phenyl]acetamide]
> 2000 | < 50 | > 2000 | CSc1nc(N)nc(SCC(=O)Nc2cccc(C(F)(F)F)n2)c1C#N [Example 36, 2-{[2-amino-5-cyano-6-(methylthio)pyrimidin-4-yl]thio}-N-[6-(trifluoromethyl)pyridin-2-yl]acetamide]
> 2000 | < 50 | > 2000 | CCOc1nc(N)nc(N(C)[C@@H](CCCCN)C(=O)Nc2cccc(C(F)(F)F)c2)c1C#N [Example 136, N~2~-[2-amino-5-cyano-6-(ethyloxy)pyrimidin-4-yl]-N~2~-methyl-N-[3-(trifluoromethyl)phenyl]-L-lysinamide]
> 2000 | < 50 | > 2000 | CSc1nc(N)nc(SC2CCN(c3cccc(C(F)(F)F)c3)C2=O)c1C#N (stereo not drawn) [Example 35, 2-amino-4-(methylthio)-6-({2-oxo-1-[3-(trifluoromethyl)phenyl]pyrrolidin-3-yl}thio)pyrimidine-5-carbonitrile]
> 2000 | < 50 | > 2000 | CSc1nc(N)nc(N(C)[C@@H](C)C(=O)Nc2cc(OC(F)(F)F)ccc2OCCN(C)C)c1C#N [Example 134, N~2~-[2-amino-5-cyano-6-(methylthio)pyrimidin-4-yl]-N-{2-{[2-(dimethylamino)ethyl]oxy}-5-[(trifluoromethyl)oxy]phenyl}-N~2~-methyl-L-alaninamide]
> 2000 | < 50 | > 2000 | CSc1nc(N)nc(N(C)[C@@H](C)C(=O)Nc2cccc(OC(F)(F)F)c2)c1C#N [Example 132, N~2~-[2-amino-5-cyano-6-(methylthio)pyrimidin-4-yl]-N~2~-methyl-N-{3-[(trifluoromethyl)oxy]phenyl}-L-alaninamide]
> 2000 | < 50 | > 2000 | CSc1cc(COC(=O)Nc2cccc(C(F)(F)F)c2)nc(NCc2ccccc2)n1 [Example 38, {6-(methylthio)-2-[(phenylmethyl)amino]pyrimidin-4-yl}methyl [3-(trifluoromethyl)phenyl]carbamate]
> 2000 | 50 to 500 | > 2000 | CSc1nc(N)nc(NCC(=O)Nc2cccc(C(F)(F)F)c2)c1C#N [Example 20, N^2-[2-amino-5-cyano-6-(methylthio)pyrimidin-4-yl]-N-[3-(trifluoromethyl)phenyl]glycinamide]
> 2000 | < 50 | > 2000 | CSc1nc(N)nc(SCC(=O)Nc2nc(C)cs2)c1C#N [Example 25, 2-{[2-amino-5-cyano-6-(methylthio)pyrimidin-4-yl]thio}-N-(4-methyl-1,3-thiazol-2-yl)acetamide]
> 2000 | 50 to 500 | > 2000 | CSc1nc(N)nc(N[C@@H](C)C(=O)Nc2cc(C(=O)NO)cc(C(F)(F)F)c2)c1C#N [Example 141, 3-({N-[2-amino-5-cyano-6-(methylthio)pyrimidin-4yl]-L-alanyl}amino)-N-hydroxy-5-(trifluoromethyl)benzamide]
> 2000 | < 50 | > 2000 | CSc1nc(N)nc(N(C)[C@@H](C)C(=O)Nc2cc(C(=O)NCCCN3CCN(C)CC3)cc(C(F)(F)F)c2)c1C#N [Example 131, 3-({N-[2-amino-5-cyano-6-(methylthio)pyrimidin-4-yl]-N-methyl-L-alanyl}amino)-N-[3-(4-methylpiperazin-1-yl)propyl]-5-(trifluoromethyl)benzamide]
> 2000 | < 50 | > 2000 | CSc1nc(N)nc(SCC(=O)Nc2ccc(F)c(C(F)(F)F)c2)c1C#N [Example 31, 2-{[2-amino-5-cyano-6-(methylthio)pyrimidin-4-yl]thio}-N-[4-fluoro-3-(triuoromethyl)phenyl]acetamide]
> 2000 | 50 to 500 | > 2000 | CSc1nc(N)nc(N[C@@H](COC(C)=O)C(=O)Nc2cccc(C(F)(F)F)c2)c1C#N [Example 138, (2S0-2-{[2-amino-5-cyano-6-(methylthio)pyrimidin-4-yl]amino}-3-oxo-3-{[3-(trifluoromethyl)phenyl]amino}propyl acetate]
> 2000 | 50 to 500 | > 2000 | CSc1nc(N)nc(SCC(=O)c2ccc3c(c2)NC(=O)CO3)c1C#N [Example 49, 2-amino-4-(methylthio)-6-{[2-oxo-2-(3-oxo-3,4-dihydro-2H-1,4-benzoxazin-6-yl)ethyl]thio}pyrimidine-5-carbonitrile]
> 2000 | 50 to 500 | > 2000 | CSc1nc(N)nc(SCC(=O)N(C)c2cccc(C(F)(F)F)c2)c1C#N [Example 16, 2-{(2-amino-5-cyano-6-(methylthio)pyrimidin-4-yl]thio}-N-methyl-N-[3-(trifluoromethyl)phenyl]acetamide]
> 2000 | < 50 | > 2000 | CSc1nc(N)nc(N[C@@H](C)C(=O)Nc2cc(OCCN(C)C)cc(C(F)(F)F)c2)c1C#N [Example 137, N~2~-[2-amino-5-cyano-6-(methylthio)pyrimidin-4-yl]-N-[3-{[2-(dimethylamino)ethyl]oxy}-5-(trifluoromethyl)phenyl]-L-alaninamide]
> 2000 | < 50 | > 2000 | CCCCOc1cccc(NC(=O)CSc2nc(N)nc(SC)c2C#N)c1 [Example 22, 2-{[2-amino-5-cyano-6-(methylthio)pyrimidin-4-yl]thio}-N-[3-(butyloxy)phenyl]acetamide]
> 2000 | < 50 | > 2000 | CCc1nnc(NC(=O)CSc2nc(N)nc(SC)c2C#N)s1 [Example 24, 2-{[2-amino-5-cyano-6-(methylthio)pyrimidin-4-yl]thio}-N-(5-ethyl-1,3,4-thiadiazol-2-yl)acetamide]
